Measurements published in patent US7691844B2, “Nonpeptide substituted spirobenzoazepines as vasopressin antagonists” (Ortho-McNeil Pharmaceutical, Inc., priority 2000, dated 2010).

What was measured:
[1] = target: V1a (Homo sapiens, UniProt P37288); assay: In-vitro receptor binding assay (3H-arginine-8-vasopressin), V1a
Protocol: (§1) (A) In-Vitro Binding Assay […] The reaction plates are allowed to sit at room temperature for one hour. The samples are filtered through Unifilter GF/C plates (presoaked in 0.3 polyethyleneimine). The plates are washed 5 times with cold physiological saline containing 0.05% Tween 20. After drying, the bottom of the filter plates are sealed and 0.025 ml of Microscint-20 is added to each filter. The top of the plate is sealed, and the plate is counted. Non-specific binding is determined by the addition of 1.25 μM […]-vasopressin in those wells. % Inh. is calculated as follows: […]

[2] = target: human V2 receptor (Homo sapiens, UniProt P30518); assay: In-vitro receptor binding assay (3H-arginine-8-vasopressin), V2
human V2 receptor, sequence (P30518 whole entry): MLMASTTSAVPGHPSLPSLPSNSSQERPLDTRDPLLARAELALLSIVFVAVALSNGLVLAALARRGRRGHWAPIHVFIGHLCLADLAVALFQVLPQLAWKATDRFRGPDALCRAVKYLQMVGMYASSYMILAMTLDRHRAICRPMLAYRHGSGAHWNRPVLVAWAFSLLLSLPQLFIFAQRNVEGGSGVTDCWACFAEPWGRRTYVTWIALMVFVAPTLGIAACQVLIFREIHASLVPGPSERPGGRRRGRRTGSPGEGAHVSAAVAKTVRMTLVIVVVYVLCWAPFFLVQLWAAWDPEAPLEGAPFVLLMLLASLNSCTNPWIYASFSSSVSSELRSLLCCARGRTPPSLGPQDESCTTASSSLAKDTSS
Protocol: as §1

[3] = @ 10 μM, read-out: Receptor Binding V2 (% Inh. @ concentration in μM)
[4] = @ 1 μM, read-out: Receptor Binding V2 (% Inh. @ concentration in μM)

V1a, sequence (P37288 whole entry): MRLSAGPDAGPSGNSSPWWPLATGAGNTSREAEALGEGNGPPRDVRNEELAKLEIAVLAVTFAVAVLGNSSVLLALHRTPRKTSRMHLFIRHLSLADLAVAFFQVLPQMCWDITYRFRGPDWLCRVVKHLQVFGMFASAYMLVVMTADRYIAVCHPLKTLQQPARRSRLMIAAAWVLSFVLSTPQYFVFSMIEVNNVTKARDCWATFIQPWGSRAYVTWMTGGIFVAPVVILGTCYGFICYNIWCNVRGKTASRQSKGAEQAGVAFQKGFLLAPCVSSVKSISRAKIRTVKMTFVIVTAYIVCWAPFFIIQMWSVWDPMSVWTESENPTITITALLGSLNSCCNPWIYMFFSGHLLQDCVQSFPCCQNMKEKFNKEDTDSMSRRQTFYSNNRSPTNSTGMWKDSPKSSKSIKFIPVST

| SMILES | IC50 [1] | inhibition at 1 µM [2, 4] | also measured |
| --- | --- | --- | --- |
| O=C(c1ccc([N+](=O)[O-])cc1)N1CCC2(C=CCCC2)Cc2ccccc21 (stereo not drawn) [Compound 49, 4-(4-Nitrobenzoyl)-4-aza-[6,5]-spiro-[5,6]-benzododec-2′-ene] | 0.38 µM |  | inhibition at 10 µM [2, 3]: 30% |
| O=C(c1cc(C(F)(F)F)cc(C(F)(F)F)c1)N1CCC2(C=CCCC2)Cc2ccccc21 (stereo not drawn) [Compound 50] |  |  | Receptor Binding V1a (% Inh. @ concentration in μM) ([1]; @ 10 μM): 20% @ 10; Receptor Binding V2 (% Inh. @ concentration in μM) ([2]; @ 10 μM): 26% @ 10 |
| O=C(c1cccc(Br)c1)N1CCC2(C=CCCC2)Cc2ccccc21 (stereo not drawn) [Compound 51] | 5.6 µM |  | inhibition at 10 µM [2, 3]: 33% |
| N#Cc1cccc(C(=O)N2CCC3(C=CCCC3)Cc3ccccc32)c1 (stereo not drawn) [Compound 52] | 0.53 µM |  | Receptor Binding V2 (% Inh. @ concentration in μM) ([2]; @ 10 μM): 28% @ 10 |
| O=C(NCc1ccc(C(=O)N2CCC3(C=CCCC3)Cc3ccccc32)cc1)c1ccccc1 (stereo not drawn) [Compound 55] |  |  | Receptor Binding V1a (% Inh. @ concentration in μM) ([1]; @ 10 μM): 0% @ 10; Receptor Binding V2 (% Inh. @ concentration in μM) ([2]; @ 10 μM): 29% @ 10 |
| CN(C)c1ccc(C(=O)N2CCC3(C=CCCC3)Cc3ccccc32)cc1 (stereo not drawn) [Compound 60] | 0.051 µM |  | Receptor Binding V2 (% Inh. @ concentration in μM) ([2]; @ 1 μM): 14% @ 1 |
| O=C(Nc1ccccc1)N1CCC2(C=CCCC2)Cc2ccccc21 (stereo not drawn) [Compound 61] |  |  | Receptor Binding V1a (% Inh. @ concentration in μM) ([1]; @ 1 μM): 11% @ 1; Receptor Binding V2 (% Inh. @ concentration in μM) ([2]; @ 1 μM): 3% @ 1 |
| O=C(Nc1ccc(F)cc1)N1CCC2(C=CCCC2)Cc2ccccc21 (stereo not drawn) [Compound 62] |  |  | Receptor Binding V1a (% Inh. @ concentration in μM) ([1]; @ 1 μM): 5% @ 1; Receptor Binding V2 (% Inh. @ concentration in μM) ([2]; @ 1 μM): 4% @ 1 |
| O=C(c1ccccc1-c1ccccc1)N1CCC2(C=CCCC2)Cc2ccccc21 (stereo not drawn) [Compound 64] |  |  | Receptor Binding V1a (% Inh. @ concentration in μM) ([1]; @ 1 μM): 1% @ 1; Receptor Binding V2 (% Inh. @ concentration in μM) ([2]; @ 1 μM): 12% @ 1 |
| O=C(O)c1ccc(C(=O)N2CCC3(C=CCCC3)Cc3ccccc32)cc1 (stereo not drawn) [Compound 65, 4-(4-Carboxybenzoyl)-4-aza-[6,5]-spiro-[5,6]-benzododec-2′-ene] |  | 11% | inhibition at 1 µM ([1]; @ 1 μM, read-out: Receptor Binding V1a (% Inh. @ concentration in μM)): 8% |
| O=C(Nc1ccc(C(=O)N2CCC3(C=CCCC3)Cc3ccccc32)cc1)c1ccccc1 (stereo not drawn) [Compound 67] | 0.02 µM |  | IC50 [2]: 0.39 µM |
| Nc1ccc(C(=O)N2CCC3(C=CCCC3)Cc3ccccc32)cc1 (stereo not drawn) [Compound 68] | 0.81 µM | 3% |  |
| COc1ccccc1C(=O)Nc1ccc(C(=O)N2CCC3(C=CCCC3)Cc3ccccc32)cc1 (stereo not drawn) [Compound 71] | 0.03 µM |  | IC50 [2]: 0.2 µM |
| CCCCOc1ccc(C(=O)N2CCC3(C=CCCC3)Cc3cc(Cl)c(Cl)cc32)cc1 (stereo not drawn) [Compound 73] | 0.09 µM |  | Receptor Binding V2 (% Inh. @ concentration in μM) ([2]; @ 1 μM): 10% @ 1 |
| COc1ccc(C(=O)N2CCC3(C=CCCC3)Cc3ccccc32)cc1OC (stereo not drawn) [Compound 75] | 0.07 µM | 1% |  |
| CCCCCCCOc1ccc(C(=O)N2CCC3(C=CCCC3)Cc3ccccc32)cc1 (stereo not drawn) [Compound 76] | 1 µM | 0% |  |
| O=C(c1ccc(O)cc1)N1CCC2(C=CCCC2)Cc2ccccc21 (stereo not drawn) [Compound 78] | 0.51 µM | 3% |  |

| SMILES | IC50 [1] | inhibition at 1 µM [2, 4] | also measured |
| --- | --- | --- | --- |
| CC(C)Nc1ccc(C(=O)N2CCC3(C=CCCC3)Cc3ccccc32)cc1 (stereo not drawn) [Compound 79] | 0.19 µM | 19% |  |
| Cc1ccc(C(=O)Nc2ccc(C(=O)N3CCC4(C=CCCC4)Cc4ccccc43)cc2)cc1C (stereo not drawn) [Compound 81] | 0.14 µM | 47% |  |
| O=C(Nc1ccccc1)c1ccc(C(=O)N2CCC3(C=CCCC3)Cc3ccccc32)cc1 (stereo not drawn) [Compound 82, 4-(4-Anilinocarbonylbenzoyl)-4-aza-[6,5]-spiro-[5,6]-benzododec-2′-ene] | 0.02 µM | 41% |  |
| O=C(Nc1ccc(C(=O)N2CCC3(C=CCCC3)Cc3ccccc32)cc1)c1ccc(-c2ccccc2)cc1 (stereo not drawn) [Compound 84] |  |  | Receptor Binding V1a (% Inh. @ concentration in μM) ([1]; @ 1 μM): 35% @ 1; Receptor Binding V2 (% Inh. @ concentration in μM) ([2]; @ 1 μM): 2% @ 1 |
| CSc1ccc(C(=O)N2CCC3(C=CCCC3)Cc3ccccc32)cc1 (stereo not drawn) [Compound 92] | 0.066 µM | 0% |  |
| CSc1cccc(C(=O)Nc2ccc(C(=O)N3CCC4(C=CCCC4)Cc4ccccc43)cc2)c1 (stereo not drawn) [Compound 93] | 0.015 µM | 26% |  |
| C[S+]([O-])c1ccc(C(=O)N2CCC3(C=CCCC3)Cc3ccccc32)cc1 (stereo not drawn) [Compound 94] | 0.02 µM | 10% |  |
| C[S+]([O-])c1ccc(C(=O)Nc2ccc(C(=O)N3CCC4(C=CCCC4)Cc4ccccc43)cc2)cc1 (stereo not drawn) [Compound 95] |  |  | Receptor Binding V1a (% Inh. @ concentration in μM) ([1]; @ 1 μM): 27% @ 1; Receptor Binding V2 (% Inh. @ concentration in μM) ([2]; @ 1 μM): 0% @ 1 |
| Cc1ccccc1NC(=O)c1ccc(C(=O)N2CCC3(C=CCCC3)Cc3ccccc32)cc1 (stereo not drawn) [Compound 98] | 0.027 µM |  | IC50 [2]: 0.2 µM |
| O=C(Nc1ccc(C(=O)N2CCC3(C=CCCC3)Cc3ccccc32)cc1)c1c(Cl)cccc1Cl (stereo not drawn) [Compound 102] | 0.046 µM |  | IC50 [2]: 0.159 µM |
| O=C(Nc1ccc(C(=O)N2CCC3(C=CCCC3)Cc3ccccc32)cc1)c1ccncc1 (stereo not drawn) [Compound 104] | 0.051 µM | 36% |  |
| Cc1ncccc1C(=O)Nc1ccc(C(=O)N2CCC3(C=CCCC3)Cc3ccccc32)cc1 (stereo not drawn) [Compound 105] | 0.035 µM |  | IC50 [2]: 1 µM |
| Cc1ccc(F)cc1C(=O)Nc1ccc(C(=O)N2CCC3(C=CCCC3)Cc3ccccc32)c(Cl)c1 (stereo not drawn) [Compound 111] | 0.8 µM |  | IC50 [2]: 0.045 µM |
| Cc1ccccc1C(=O)Nc1ccc(C(=O)N2CCC3(C=CCCC3)Cc3ccccc32)c(Cl)c1 (stereo not drawn) [Compound 112] | 0.062 µM |  | IC50 [2]: 0.08 µM |
| Cc1ccc(-c2ccccc2C(=O)Nc2ccc(C(=O)N3CCC4(C=CCCC4)Cc4ccccc43)cc2)cc1 (stereo not drawn) [Compound 114] | 0.09 µM |  | IC50 [2]: 0.095 µM |
| COc1cc(NC(=O)c2cc(F)ccc2C)ccc1C(=O)N1CCC2(C=CCCC2)Cc2ccccc21 (stereo not drawn) [Compound 116] | 0.019 µM |  | IC50 [2]: 0.091 µM |

The next lines start with results.

| IC50 [1] | inhibition at 1 µM [2, 4] | SMILES | also measured |
| --- | --- | --- | --- |
| 0.39 µM |  | O=C(c1cc(F)cc(F)c1)N1CCC2(C=CCCC2)Cc2ccccc21 (stereo not drawn) [Compound 47] | Receptor Binding V2 (% Inh. @ concentration in μM) ([2]; @ 10 μM): 29% @ 10 |
| 4.3 µM |  | O=C(c1cccc(C(F)(F)F)c1)N1CCC2(C=CCCC2)Cc2ccccc21 (stereo not drawn) [Compound 56] | inhibition at 10 µM [2, 3]: 0% |
| 0.34 µM | 4% | CC(=O)Nc1ccc(C(=O)N2CCC3(C=CCCC3)Cc3ccccc32)cc1 (stereo not drawn) [Compound 57] |  |
| 0.01 µM |  | Nc1ccc(C(=O)Nc2ccc(C(=O)N3CCC4(C=CCCC4)Cc4ccccc43)cc2)cc1 (stereo not drawn) [Compound 70] | Receptor Binding V2 (% Inh. @ concentration in μM) ([2]; @ 1 μM): 21% @ 1 |
| 0.04 µM |  | CN(C)c1ccc(C(=O)N2CCC3(C=CCCC3)Cc3cc(Cl)c(Cl)cc32)cc1 (stereo not drawn) [Compound 72] | Receptor Binding V2 (% Inh. @ concentration in μM) ([2]; @ 1 μM): 16% @ 1 |
| 0.19 µM |  | COc1ccc(C(=O)N2CCC3(C=CCCC3)Cc3ccccc32)c(OC)c1 (stereo not drawn) [Compound 74] | Receptor Binding V2 (% Inh. @ concentration in μM) ([2]; @ 1 μM): 27% @ 1 |
| 0.9 µM | 16% | O=C(c1ccc(OC(F)(F)F)cc1)N1CCC2(C=CCCC2)Cc2ccccc21 (stereo not drawn) [Compound 77] |  |
| 0.17 µM | 25% | O=C(Nc1ccccc1)Nc1ccc(C(=O)N2CCC3(C=CCCC3)Cc3ccccc32)cc1 (stereo not drawn) [Compound 83] |  |
| 0.05 µM |  | Cc1cccc(C(=O)Nc2ccc(C(=O)N3CCC4(C=CCCC4)Cc4ccccc43)cc2)c1 (stereo not drawn) [Compound 85] | IC50 [2]: 0.38 µM |
| 0.065 µM | 10% | CC(C)COc1ccc(C(=O)N2CCC3(C=CCCC3)Cc3ccccc32)cc1 (stereo not drawn) [Compound 86] |  |
| 0.074 µM | 47% | Cc1ccc(C(=O)Nc2ccc(C(=O)N3CCC4(C=CCCC4)Cc4ccccc43)cc2)cc1 (stereo not drawn) [Compound 87] |  |
| 0.012 µM |  | O=C(Nc1ccc(C(=O)N2CCC3(C=CCCC3)Cc3ccccc32)cc1)c1ccccc1Cl (stereo not drawn) [Compound 96] | IC50 [2]: 0.18 µM |
| 0.016 µM |  | O=C(Nc1ccc(C(=O)N2CCC3(C=CCCC3)Cc3ccccc32)cc1)c1ccc(Cl)cc1Cl (stereo not drawn) [Compound 103] | IC50 [2]: 0.274 µM |
| 0.06 µM | 21% | O=C(c1ccccc1F)N1CCC2(C=CCCC2)Cc2ccccc21 (stereo not drawn) [Compound 107] |  |
| 0.019 µM |  | COc1cc(NC(=O)c2ccccc2F)ccc1C(=O)N1CCC2(C=CCCC2)Cc2ccccc21 (stereo not drawn) [Compound 115] | inhibition at 0.1 µM ([2]; @ 0.1 μM, read-out: Receptor Binding V2 (% Inh. @ concentration in μM)): 37% |
